Reference: article PMC10779433, “Bidirectional Allosteric Coupling between PIP2 Binding and the Pore of the Oncochannel TRPV6” (International Journal of Molecular Sciences, 2024)
Residues, ends and D or L forms follow the SMILES beside them. *: point of attachment. Palmitoyl = CCCCCCCCCCCCCCCC(=O)*

Target: T1, TRPV6 WT (Homo sapiens, UniProt Q9H1D0)
T1 construct: expressed in transfected cells; host or cells: HEK293 cells, transient transfection
T1 sequence (Q9H1D0 41-765 limits assumed): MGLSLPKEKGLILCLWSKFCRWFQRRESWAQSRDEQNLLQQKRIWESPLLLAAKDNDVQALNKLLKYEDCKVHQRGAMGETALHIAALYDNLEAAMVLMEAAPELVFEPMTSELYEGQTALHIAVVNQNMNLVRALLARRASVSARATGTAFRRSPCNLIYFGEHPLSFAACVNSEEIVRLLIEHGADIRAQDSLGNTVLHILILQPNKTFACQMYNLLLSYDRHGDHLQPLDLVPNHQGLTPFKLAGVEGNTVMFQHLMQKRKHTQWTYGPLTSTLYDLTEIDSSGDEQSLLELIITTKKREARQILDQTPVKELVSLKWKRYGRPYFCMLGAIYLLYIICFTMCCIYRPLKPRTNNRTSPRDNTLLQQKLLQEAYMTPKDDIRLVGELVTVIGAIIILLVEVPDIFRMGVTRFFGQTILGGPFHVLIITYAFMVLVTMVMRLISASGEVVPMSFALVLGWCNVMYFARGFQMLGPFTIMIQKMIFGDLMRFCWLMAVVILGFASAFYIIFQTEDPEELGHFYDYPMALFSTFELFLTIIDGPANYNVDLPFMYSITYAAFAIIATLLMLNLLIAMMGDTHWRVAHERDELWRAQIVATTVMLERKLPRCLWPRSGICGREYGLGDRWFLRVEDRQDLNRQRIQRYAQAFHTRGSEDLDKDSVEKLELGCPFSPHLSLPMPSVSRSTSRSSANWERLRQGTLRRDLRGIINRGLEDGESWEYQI
Assay: NFAT localization, TRPV6 WT
Format: cell-based
Conditions: HEK293 cells
Description: N-terminally TagRFP-labeled human TRPV6 (725 aa) was kindly provided by R. Bhardwaj and M. Hediger (University of Bern, Bern, Switzerland). This variant is translated from the first ATG codon and thus deviates from the non-ATG-initiated protein which is expressed in vivo (accession number NM_018646.6) by lacking 40 amino acids of the very N-terminus. For N-terminal labeling with EYFP, TRPV6 was cloned into pEYFP-C1 (Clontech) via EcoRI and SacII restriction sites. Mutations (F468A, R470A, F472A, K484A/Q, G488R, R492A/Q, I575A, G579A, D580A/K, H582A, W583A/F, H587A, R589A, W593A, R632A/Q, R470A, W583F) were introduced using the QuickChange XL site-directed mutagenesis kit (Stratagene, San Diego, CA, USA) and Pfu DNA Polymerase (Promega, Madison, WI, USA). pTagRFP-hTRPV6 I575A was kindly provided by the lab of M. Hediger (University of Bern, Bern, Switzerland). Forward and reverse primers for site-directed mutagenesis were synthesized by Eurofins genomics GmbH (Wien, Vienna, Austria). Intactness of the constructs in terms of sequence was confirmed by sequencing (Microsynth Austria GmbH, Wien, Vienna, Austria; Eurofins genomics GmbH, Wien, Vienna, Austria). In the present experiments, Tag-RFP-labeled constructs were implemented for NFAT screens, patch clamp measurements, and Fura-2-based Ca^2+ imaging, while for R.Geco1.2 measurements, TRPV6 WT and mutants were used which carried an EYFP label at the N-terminus (pEYFP-C1 vector) to avoid spectral overlap. R.Geco1.2 was purchased from Addgene (No. 45494), and mCherry-CRY2-5ptase OCRL was established in the lab of P. De Camilli and was derived from Addgene (No. 66836), as was CIBN-CAAX (No. 79574). Plasmids encoding for mCerulean3-CRY2-5′ ptase OCRL, YFP-CIBN-CAAX, and the mCherry-tagged PH domain were provided by K. Groschner (Medical University of Graz, Graz, Austria). […] CFP-NFAT (NFATc1, equivalent to NFAT2) was kindly provided by R. Kehlenbach (Scripps Research Institute, La Jolla, CA, USA).
After incubation, cover slips were carefully rinsed with phenol red-free DMEM supplemented with the compound and dosage corresponding to the previous incubation, which was then also present during imaging. In any case, an untreated control was included as well, using phenol red-free DMEM as imaging solution. Subcellular NFAT localization of TRPV6 expressing cells was again monitored on an Axiovert 135 inverted microscope (Zeiss, Oberkochen, Germany), as described in more detail before. Excitation of CFP relied on the 425 nm LED in combination with a CHROMA 69,008× ET ECFP/EYFP/mCherry 25mm Dia Mounted filter. Images were analyzed using Matlab2018a, differentiating between three cell populations based on the ratio of CFP emission intensity originating from the nucleus and the cytosol, similar to Schober et al. (2019).

[1] = 5 μM cis-22a, three or four hours

Row | Compound | NFAT distribution pattern (0.1 μM cis-22a, 2 h, 37 °C, vs DMSO about 90% nuclear, about 10% homogeneous) | nuclear NFAT localization (% of cells) (5 μM cis-22a, 2 h, vs DMSO control 90% nuclear) [%] | NFAT cytosolic localization [1] | NFAT nuclear localization [1] | NFAT homogeneous vs cytosolic localization (10 μM cis-22a, 2 h) | NFAT cytosolic localization, dose dependence (0.1, 1, 5, 10 μM cis-22a, 2 h) | NFAT nuclear localization, dose dependence (1, 5, or 10 μM cis-22a, 2 h, 37 °C) | NFAT localization patterns (10 μM pal-PIP2 peptide, 15–20 min or 2 h)
1 | Cc1cccc(C2CCC(N3CCN(c4cccnc4)CC3)CC2)c1.O=C(O)C(F)(F)F (stereo not drawn) [cis-22a] | essentially preserved | 22 | roughly 40% | only a small proportion of cells maintained nuclear localization | the likelihood for homogeneous and cytosolic localization equalized | only observed at the two highest concentrations tested | continuously decreased the proportion of cells showing nuclear NFAT localization but favored a homogeneous distribution | 
2 | CCCCCCCCCCCCCCCC(=O)N[C@@H](Cc1c[nH]cn1)C(=O)N[C@@H](CCCNC(=N)N)C(=O)N[C@@H](CCC(N)=O)C(=O)N[C@@H](CCCCN)C(=O)N[C@@H](Cc1c[nH]cn1)C(=O)N[C@@H](Cc1ccccc1)C(=O)N[C@@H](CCC(=O)O)C(=O)N[C@@H](CCCCN)C(=O)N[C@@H](CCCNC(=N)N)C(=O)N[C@@H](CCCNC(=N)N)C(N)=O [pal-PIP2 peptide] (Palmitoyl-HRQKHFEKRR-NH2) |  |  |  |  |  |  |  | unable to change localization patterns
